In ChEMBL document CHEMBL1201862, “PubChem BioAssay data set” (2004):
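In this assay, cells in 96-well plates receive the compound at five concentrations for 48 hours. Endpoints are linearly interpolated between the surrounding concentrations. Abbreviation: GI50, concentration required for 50% inhibition of growth.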 The source made the active and inactive calls. Rule as the data show it: active = GI50 up to about 1.1 µM and inactive = higher.

Experiments:
Assay in all cases: growth of human tumour cells (NCI), 48 h
[1] = system: OVCAR-5
[2] = system: A549
[3] = system: SK-OV-3
[4] = system: HOP-92
[5] = system: SF-539
[6] = system: HL-60
[7] = system: HCT-116
[8] = system: EKVX
[9] = system: Hs-578T
[10] = system: SR
[11] = system: MDA-MB-435
[12] = system: IGROV-1
[13] = system: NCI-H522
[14] = system: NCI-H460
[15] = system: HOP-62
[16] = system: K562
[17] = system: U-251
[18] = system: DU-145
[19] = system: OVCAR-3
[20] = system: HT-29

Measured: GI50

O=C(O)c1cc(C(=O)O)cc(N2C(=O)c3ccccc3C2=O)c1
inactive: [1] > 100 µM | [2] > 100 µM | [3] > 100 µM | [4] > 100 µM | [5] > 100 µM | [6] > 100 µM | [7] > 100 µM | [8] > 100 µM | [9] > 100 µM | [10] > 100 µM | [11] > 100 µM | [12] > 100 µM | [13] > 100 µM | [14] > 100 µM | [15] > 100 µM | [16] > 100 µM | [17] > 100 µM | [18] > 100 µM | [19] > 100 µM | [20] > 100 µM

Cn1c(-c2ccccc2)c2cc3nc4ccccc4nc3cc2c1-c1ccccc1
inactive: [1] 52.2 µM | [2] 3.94 µM | [3] 21.6 µM | [4] 25.3 µM | [5] 17.4 µM | [6] 20.1 µM | [7] 23.2 µM | [8] 31 µM | [9] 10.6 µM | [10] 4.56 µM | [11] 5.79 µM | [12] 17.5 µM | [13] 15.2 µM | [14] 4.19 µM | [15] 10.2 µM | [16] 17.3 µM | [17] 19.8 µM | [18] 30.3 µM | [19] 20.4 µM | [20] 17.8 µM

COc1ccc(C2=C(N)c3ccccc3C2=O)cc1
inactive: [1] > 100 µM | [2] > 100 µM | [3] 43 µM | [4] 27.9 µM | [5] 40.9 µM | [6] > 100 µM | [7] 87.5 µM | [8] > 100 µM | [9] 27.5 µM | [10] > 100 µM | [11] > 100 µM | [12] 89.7 µM | [13] 69 µM | [14] > 100 µM | [15] 31.2 µM | [17] 33.9 µM | [18] > 100 µM | [19] > 100 µM | [20] > 100 µM

C/C(=N\N)C(CN1CCOCC1)C(c1ccccc1)c1c(O)c2ccccc2oc1=O (stereo not drawn)
inactive: [1] > 100 µM | [2] > 75.2 µM | [3] > 100 µM | [4] 26.3 µM | [5] > 100 µM | [6] 30.4 µM | [7] > 100 µM | [8] 83.6 µM | [9] > 100 µM | [10] 46 µM | [11] 53.7 µM | [12] > 100 µM | [13] > 52 µM | [14] > 80.7 µM | [15] > 91 µM | [16] 47.6 µM | [17] > 76.9 µM | [18] > 100 µM | [19] > 61.4 µM | [20] > 100 µM

O=c1c(-c2ccccc2)nnc2n(Cc3ccccc3)c3ccccc3n12
inactive: [1] > 100 µM | [2] > 100 µM | [4] 28.6 µM | [5] 94.8 µM | [6] > 100 µM | [7] > 100 µM | [8] > 100 µM | [9] > 100 µM | [10] > 100 µM | [11] > 100 µM | [12] > 100 µM | [13] 26.7 µM | [14] > 100 µM | [17] > 100 µM | [18] > 100 µM | [20] > 100 µM

COc1cc(C(=O)Oc2ccc3c(c2)OCO3)cc(OC)c1OC
inactive: [1] > 100 µM | [2] > 100 µM | [3] > 100 µM | [4] > 100 µM | [5] > 100 µM | [6] > 100 µM | [9] > 100 µM | [10] > 100 µM | [11] > 100 µM | [12] > 100 µM | [13] > 100 µM | [14] > 100 µM | [15] > 100 µM | [17] > 100 µM | [18] > 100 µM | [19] > 100 µM | [20] > 100 µM

N#Cc1c(N)oc(-c2cccc([N+](=O)[O-])c2)c1C#N
inactive: [1] 82.4 µM | [2] > 100 µM | [3] > 100 µM | [4] 17.4 µM | [5] 23.2 µM | [6] 28.5 µM | [7] 33.7 µM | [8] 12.9 µM | [9] 32.8 µM | [10] 46.6 µM | [11] 31.2 µM | [12] 23.6 µM | [13] 23.7 µM | [15] > 10 µM | [17] 27.5 µM | [18] > 100 µM | [20] 20 µM

C=C(Br)CNC(=O)CCC(=O)NCC(=C)Br
inactive: [1] > 100 µM | [2] > 100 µM | [3] > 100 µM | [5] > 100 µM | [6] > 100 µM | [7] > 100 µM | [8] > 100 µM | [9] > 100 µM | [10] > 100 µM | [11] > 100 µM | [12] > 100 µM | [13] > 100 µM | [14] > 100 µM | [15] > 100 µM | [16] > 100 µM | [17] > 100 µM | [18] > 100 µM | [19] > 100 µM | [20] > 100 µM
